Reference: patent EP0437382A1, “Thimidin derivatives, their preparation and compositions containing them” (RHONE-POULENC SANTE, priority 1990, dated 1991)
Values after ≈ are worked out from the molar mass of the structure shown.

How the values were obtained:
[1] = Cytotoxicity on non-infected CEM cells (MTT viability); format: cell-based, humaines; conditions: human; non-infected CEM cells, 7 days; read-out: CC50 (concentration qui inhibe de 50 % la croissance des cellules non infectées)
Experimental: (§1) Dans ce qui suit on décrit les résultats sur l'effet cytopathogène et la multiplication du virus HIV dans une lignée cellulaire permissive (cellules lymphoblastoïdes humaines CEM).
(§2) Le test est réalisé sur la lignée lymphoblastoïde CEM clone 13. Dans une microplaque de 96 puits on dépose 25 µl/puit d'une solution de produit à tester ou de tampon phosphate isotonique (TPI) dans le cas des contrôles. Les produits sont étudiés à différentes concentrations (souvent 8), à raison de 4 puits par concentration. On ajoute alors 125 µl d'une suspension de cellules CEM dans le milieu RPMI contenant 10 % de sérum de veau foetal, 40 U/ml de pénicilline, 40 µg/ml de streptomycine et 5 µg/ml de polybrène (3500 cellules par puit) et les microplaques sont incubées une heure à 37°C, sous une atmosphère contenant 5 % de gaz carbonique. L'essai est fait en double: une partie sur cellules infectées, pour la détermination de l'activité antivirale et l'autre partie sur cellules non infectées, pour déterminer la cytotoxité des produits. On infecte la première série avec HIV (100 µl par puit d'une suspension de virus LAV-1-BRU contenant 200-300 TCID50) tandis que l'autre série reçoit 100 µl de milieu RPMI tel que défini précédemment. Après 7 jours d'incubation, 175 µl de surnageant sont prélevés et seront utilisés par la suite pour le dosage de la reverse transcriptase. La viabilité cellulaire est déterminée selon une modification de la technique décrite par R. PAUWELS et coll., J. Virol. Meth., 20, 309-321 (1988).
(§3) Les puits, contenant encore les cellules (infectées ou non infectées), reçoivent 10 µl d'une solution de MTT (méthylthiazoletétrazolium) à 5 mg/ml dans du tampon phosphate isotonique. Pendant une période d'incubation de 4 heures, le MTT est converti en un sel de formazan (bleu) à l'intérieur des cellules vivantes et proportionnellement à leur nombre, alors que rien n'apparaît dans les puits ne contenant plus que des cellules mortes. On ajoute alors 120 µl d'isopropanol (contenant 0,04 mole/l d'acide chlorhydrique) et les microplaques sont agitées jusqu'à la solubilisation du bleu de formazan. […]
(§4) Dans ces conditions les cellules infectées sont lysées à environ 60-70 % par rapport aux cellules non infectées. On établit la concentration du produit qui inhibe l'effet cytopathogène du virus de 50 % (CE50). On détermine également celle qui inhibe de 50 % la croissance des cellules non infectées (CC50). Le rapport entre CC50 et CE50 est défini comme l'indice de sélectivité antivirale i.

[2] = system: lignée lymphoblastoïde CEM clone 13, cellules non infectées; assay: as above; format: cell-based, humaines; conditions: 7 days, control (0 µg/ml) 0.954
Experimental: as §1, §2, §3, §4

[3] = system: transcriptase inverse du virus HIV; assay: Viral multiplication by reverse transcriptase assay on culture supernatant; format: cell-based; conditions: 0,1 µg/cm³
Experimental: as §2, with “(1988). […]” for “(1988).”

[4] = system: précurseurs erythrocytaires de la moelle osseuse; assay: BFU-E test (bone marrow erythrocyte precursors); format: cell-based, humaine; conditions: 108 µg/ml, human bone marrow
Description: (§5) Enfin, les produits selon l'invention manifestent un intérêt considérable du fait de leur absence de toxicité à des concentrations élevées à l'égard des précurseurs hématopoietiques de la moelle humaine.
(§6) Il est en effet connu que l'un des problèmes majeurs associés au traitement par certains produits de cette classe, est la toxicité sur les précurseurs erythrocytaires et granulocytaires/macrophagiques de la moelle osseuse, qui se traduit du point de vue clinique dans des sévères anémies et leucopénies [D.D. RICHMAN et al., N. Engl. J. Med., 317, 192-197, (1987). R. YARCHOAN et al., Lancet i, 575-580, (1986)]. Cette toxicité peut être mise en évidence au niveau du laboratoire par des tests in vitro, sur des précurseurs erythrocytaires et granulocytaires/macrophagiques de la moelle osseuse (J.P. SOMMADOSSI et R. CARLISLE, Antimicro. Ag. Chemother., 31, 452-454, (1987). L'étude est mise en oeuvre dans les techniques de D. THIERRY et al., Acta Radiol., 24, 521-526, (1985) et D. METCALF, Hematopoietic Colony Stimulating factors, p 88-89, Elsevier (1984).
(§7) Dans le test CFU-G/M, la concentration inhibitrice de 50% de la formation des clones est de 30 µg/ml.

[5] = system: précurseurs granulocytaires/macrophagiques de la moelle osseuse; assay: CFU-G/M test (bone marrow granulocyte/macrophage precursors, clone formation); format: cell-based, humaine; conditions: CFU-GM, human bone marrow, read-out: concentration inhibitrice de 50% de la formation des clones
Description: as §5, §6, §7

virus HIV (LAV-1-BRU) = assay: microbe, parasite or virus in culture; format: cell-based; conditions: for Cellules infectées densité optique DO 600: control (0 µg/ml) 0.293
Experimental: as §1, §2, §3, §4

## Cc1cn([C@H]2C[C@H](N=[N+]=[N-])[C@@H](CO)O2)c(=O)n(N)c1=O [Exemple 1, azido-3′ amino-3 désoxy-3′ thymidine]
[1]
  CC50 at 168 h: 10 µg/mL (≈ 35.4 µM)
[2]; 0.0003 µg/ml
  cellules non infectées densité optique DO 600: 0.935
[2]; 0.001 µg/ml
  cellules non infectées densité optique DO 600: 0.888
[2]; 0.003 µg/ml
  cellules non infectées densité optique DO 600: 0.882
[2]; 0.01 µg/ml
  cellules non infectées densité optique DO 600: 0.884
[2]; 0.03 µg/ml
  cellules non infectées densité optique DO 600: 0.901
[2]; 0.1 µg/ml
  cellules non infectées densité optique DO 600: 0.928
[2]; 0.3 µg/ml
  cellules non infectées densité optique DO 600: 0.931
[2]; 1 µg/ml
  cellules non infectées densité optique DO 600: 0.909
[2]; 3 µg/ml
  cellules non infectées densité optique DO 600: 0.892
[2]; 10 µg/ml
  cellules non infectées densité optique DO 600: 0.368
[2]; 30 µg/ml
  cellules non infectées densité optique DO 600: 0.004
[3]; untreated infected cultures 204363 cpm
  activité de la transcriptase inverse, coups par minute (cpm): 44558 cpm
[3]; Human immunodeficiency virus 1, CCRF-CEM, 168 h, culture supernatant after 7 days, read-out: % d'inhibition (reverse transcriptase du virus HIV)
  inhibition at 0.1 µg/mL: 80%
[4]
  toxicité dans le test BFU-E: dépourvu de toxicité
[5]
  IC50: 30 µg/mL (≈ 106 µM)
Virus HIV (LAV-1-BRU); 0.0003 µg/ml, 7 days
  Cellules infectées densité optique DO 600: 0.311
Virus HIV (LAV-1-BRU); 0.001 µg/ml, 7 days
  Cellules infectées densité optique DO 600: 0.359
Virus HIV (LAV-1-BRU); 0.003 µg/ml, 7 days
  Cellules infectées densité optique DO 600: 0.456
Virus HIV (LAV-1-BRU); 0.01 µg/ml, 7 days
  Cellules infectées densité optique DO 600: 0.565
Virus HIV (LAV-1-BRU); 0.03 µg/ml, 7 days
  Cellules infectées densité optique DO 600: 0.577
Virus HIV (LAV-1-BRU); 0.1 µg/ml, 7 days
  Cellules infectées densité optique DO 600: 0.596
Virus HIV (LAV-1-BRU); 0.3 µg/ml, 7 days
  Cellules infectées densité optique DO 600: 0.838
Virus HIV (LAV-1-BRU); 1 µg/ml, 7 days
  Cellules infectées densité optique DO 600: 0.926
Virus HIV (LAV-1-BRU); 3 µg/ml, 7 days
  Cellules infectées densité optique DO 600: 0.865
Virus HIV (LAV-1-BRU); 10 µg/ml, 7 days
  Cellules infectées densité optique DO 600: 0.441
Virus HIV (LAV-1-BRU); 30 µg/ml, 7 days
  Cellules infectées densité optique DO 600: 0.007
Virus HIV (LAV-1-BRU); Human immunodeficiency virus 1, CCRF-CEM, 168 h, infected CEM cells, 7 days, read-out: CE50 (concentration qui inhibe l'effet cytopathogène du virus de 50 %)
  EC50: 0.01 µg/mL (≈ 0.0354 µM)
Virus HIV (LAV-1-BRU); human, cem cells, 168 h
  indice de sélectivité i = CC50/CE50: 1000
